In US20210403485A1, “PYRAZOLOPYRIMIDINE DERIVATIVE AS SELECTIVE TRK INHIBITOR” (SHANDONG LUYE PHARMACEUTICAL CO., LTD., priority 2018, published 2021):
Read-outs that look alike come from different tables or passages of the source.

Key:
[1] = Pharmacokinetic test of compounds in mice (plasma, LC/MS/MS); type: in vivo, male CD-1 mice; conditions: for Vd: read-out: Apparent volume of distribution Vd; for AUC(0-t): read-out: Area under the curve AUC0-last; for half-life: read-out: Half-life T1/2 (converted); for bioavailability: read-out: Bioavailability F %; for Cmax: read-out: Peak concentration Cmax
Method: Experimental purpose: male CD-1 mice aged 7-9 weeks were selected as test animals, and the drug concentrations of the compounds in plasma at different time points after single intravenous injection (IV) and intragastric administration (PO) of the compounds were measured by an LC/MS/MS method, so that the pharmacokinetic behavior of the compounds disclosed herein in mice was studied, and the pharmacokinetic characteristic of the compounds was evaluated.
Drug preparation: the compounds were all prepared into clear solution by taking 5% DMSO+10% solutol+85% water as vehicle, and were used for administration in IV and PO groups. The dose of each compound administered was: IV, 3 mg/kg; PO, 10 mg/kg.

ALK = target: T1, ALK (Homo sapiens, UniProt Q9UM73); test: Kinase inhibitory activity (33P-ATP, filtration-binding method, Reaction Biology Corp.); type: biochemical
T1 construct: purchased Reaction Biology Corp
Method: The mixture was incubated at room temperature for 20 minutes, added with ^33P-ATP at a certain concentration to start the reaction, and then incubated at room temperature for 120 minutes. Finally, the radioactivity of the reactant was detected by the filtration-binding method. The final kinase activity was expressed as the ratio of the remaining kinase activity in the test sample to the kinase activity of the DMSO control. The dose-response curves were fitted and IC50 values were calculated by GraphPad software.

[2] = Animal body weight and general observations, Ba/F3 ETV6-NTRK3 tumor-bearing nude mice
Method: (§11) The mice in groups were intragastrically administrated on the next day, and the animal body weight and the long and short diameters of the tumor were measured once every other day.

BaF3 ETV6-NTRK3-G623R = target: T2, BaF3 ETV6-NTRK3-G623R (Homo sapiens, UniProt Q16288, G623R, cells depend on it); test: Inhibitory activity against cell proliferation (CellTiter-Glo, 72 hours); type: cell-based; conditions: read-out: Half maximal inhibitory concentration IC50 of cells, BaF3 ETV6-NTRK3-G623R
T2 construct: fused on or other part: N-terminal part of ETV6 (TEL) as fusion partner (part of the key); P41212 (Transcription factor ETV6)
Method: (§1) Adenosine Triphosphate (ATP) is an energy carrier commonly used in various life activities in nature, and is the minimum unit for energy storage and transfer. The CellTiter-Glo™ cell viability assay kit uses luciferase as an assay agent, which requires the involvement of ATP in luminescence. The CellTiter-Glo™ reagent is added into cell culture medium to measure the luminescence value. The luminescence signal is directly proportional to the amount of ATP in the system, and the ATP is positively correlated with the number of viable cells. Therefore, the proliferation of cells can be detected by detecting the ATP content using the CellTiter-Glo kit. In this test, the cell lines used are Ba/F3 LMNA-NTRK1-WT, Ba/F3 LMNA-NTRK1-F589L, BaF3 LMNA-NTRK1-G595R, BaF3 LMNA-NTRK1-G667A, BaF3 ETV6-NTRK3-WT, BaF3 ETV6-NTRK3-G623R, and Ba/F3 SLC34A2-ROS1-WT stable cell strains, 5000 cells/well.
(§2) a) Cells in the logarithmic growth phase were collected and counted using a […]. The cell viability was detected by the trypan blue exclusion method, and the cell viability was kept over 90%.
(§3) b) The cell concentration was adjusted; 90 μL of the cell suspension was added to a 96-well plate.
c) Cells in the 96-well plate were incubated overnight at 37° C. with 5% CO2 and 95% humidity.
(§4) a) A 10-fold compound solution was prepared, with the highest concentration being 10 μM (a total of 9 concentrations, 3-fold dilution). 10 μL of compound solution was added to each well of a 96-well plate inoculated with cells, and three duplicate wells were set for each compound concentration.
b) The cells in the 96-well plate added with compound were incubated for 72 hours at 37° C. with 5% CO2 and 95% humidity, followed by the CTG (CellTiter-Glo) analysis.
(§5) a) The CTG reagent was thawed and the cell plate was equilibrated to room temperature for 30 minutes.
(§6) b) An equal volume of CTG solution was added to each well.
(§7) c) The plate was shaken on an orbital shaker for 5 minutes to lyse the cells.
(§8) d) The cell plate was placed at room temperature for 20 minutes to stabilize the luminescence signal.
(§9) e) The luminescence value was read.
(§10) The data were analyzed using GraphPad Prism 5.0 software, fitted with nonlinear S-curve regression to give dose-response curves, and IC50 values were calculated therefrom.

[3] = Animal body weight and general observations, Ba/F3 ETV6-NTRK3-G623R tumor-bearing nude mice
Method: as §11

Ba/F3 SLC34A2-ROS1-WT = target: T3, Ba/F3 SLC34A2-ROS1-WT (Homo sapiens, UniProt P08922); test: Inhibitory activity against cell proliferation (CellTiter-Glo, 72 hours); type: cell-based; conditions: read-out: Half maximal inhibitory concentration IC50 of cells, Ba/F3 SLC34A2-ROS1-WT
T3 construct: fused on or other part: N-terminal part of SLC34A2 as fusion partner (part of the key); O95436 (Sodium-dependent phosphate transport protein 2B)
Method: as §1, with “kit.” for “kit. In this test, the cell lines used are Ba/F3 LMNA-NTRK1-WT, Ba/F3 LMNA-NTRK1-F589L, BaF3 LMNA-NTRK1-G595R, BaF3 LMNA-NTRK1-G667A, BaF3 ETV6-NTRK3-WT, BaF3 ETV6-NTRK3-G623R, and Ba/F3 SLC34A2-ROS1-WT stable cell strains, 5000 cells/well.”
as §2, §3, §4, §5, §6, §7, §8, §9, §10

[4] = male, CD-1, mouse, plasma, IV, 3 mg/kg
[5] = male, CD-1, mouse, plasma, PO, 10 mg/kg

T3 sequence (P08922 whole entry, stated change not applied, the tested form may be a part): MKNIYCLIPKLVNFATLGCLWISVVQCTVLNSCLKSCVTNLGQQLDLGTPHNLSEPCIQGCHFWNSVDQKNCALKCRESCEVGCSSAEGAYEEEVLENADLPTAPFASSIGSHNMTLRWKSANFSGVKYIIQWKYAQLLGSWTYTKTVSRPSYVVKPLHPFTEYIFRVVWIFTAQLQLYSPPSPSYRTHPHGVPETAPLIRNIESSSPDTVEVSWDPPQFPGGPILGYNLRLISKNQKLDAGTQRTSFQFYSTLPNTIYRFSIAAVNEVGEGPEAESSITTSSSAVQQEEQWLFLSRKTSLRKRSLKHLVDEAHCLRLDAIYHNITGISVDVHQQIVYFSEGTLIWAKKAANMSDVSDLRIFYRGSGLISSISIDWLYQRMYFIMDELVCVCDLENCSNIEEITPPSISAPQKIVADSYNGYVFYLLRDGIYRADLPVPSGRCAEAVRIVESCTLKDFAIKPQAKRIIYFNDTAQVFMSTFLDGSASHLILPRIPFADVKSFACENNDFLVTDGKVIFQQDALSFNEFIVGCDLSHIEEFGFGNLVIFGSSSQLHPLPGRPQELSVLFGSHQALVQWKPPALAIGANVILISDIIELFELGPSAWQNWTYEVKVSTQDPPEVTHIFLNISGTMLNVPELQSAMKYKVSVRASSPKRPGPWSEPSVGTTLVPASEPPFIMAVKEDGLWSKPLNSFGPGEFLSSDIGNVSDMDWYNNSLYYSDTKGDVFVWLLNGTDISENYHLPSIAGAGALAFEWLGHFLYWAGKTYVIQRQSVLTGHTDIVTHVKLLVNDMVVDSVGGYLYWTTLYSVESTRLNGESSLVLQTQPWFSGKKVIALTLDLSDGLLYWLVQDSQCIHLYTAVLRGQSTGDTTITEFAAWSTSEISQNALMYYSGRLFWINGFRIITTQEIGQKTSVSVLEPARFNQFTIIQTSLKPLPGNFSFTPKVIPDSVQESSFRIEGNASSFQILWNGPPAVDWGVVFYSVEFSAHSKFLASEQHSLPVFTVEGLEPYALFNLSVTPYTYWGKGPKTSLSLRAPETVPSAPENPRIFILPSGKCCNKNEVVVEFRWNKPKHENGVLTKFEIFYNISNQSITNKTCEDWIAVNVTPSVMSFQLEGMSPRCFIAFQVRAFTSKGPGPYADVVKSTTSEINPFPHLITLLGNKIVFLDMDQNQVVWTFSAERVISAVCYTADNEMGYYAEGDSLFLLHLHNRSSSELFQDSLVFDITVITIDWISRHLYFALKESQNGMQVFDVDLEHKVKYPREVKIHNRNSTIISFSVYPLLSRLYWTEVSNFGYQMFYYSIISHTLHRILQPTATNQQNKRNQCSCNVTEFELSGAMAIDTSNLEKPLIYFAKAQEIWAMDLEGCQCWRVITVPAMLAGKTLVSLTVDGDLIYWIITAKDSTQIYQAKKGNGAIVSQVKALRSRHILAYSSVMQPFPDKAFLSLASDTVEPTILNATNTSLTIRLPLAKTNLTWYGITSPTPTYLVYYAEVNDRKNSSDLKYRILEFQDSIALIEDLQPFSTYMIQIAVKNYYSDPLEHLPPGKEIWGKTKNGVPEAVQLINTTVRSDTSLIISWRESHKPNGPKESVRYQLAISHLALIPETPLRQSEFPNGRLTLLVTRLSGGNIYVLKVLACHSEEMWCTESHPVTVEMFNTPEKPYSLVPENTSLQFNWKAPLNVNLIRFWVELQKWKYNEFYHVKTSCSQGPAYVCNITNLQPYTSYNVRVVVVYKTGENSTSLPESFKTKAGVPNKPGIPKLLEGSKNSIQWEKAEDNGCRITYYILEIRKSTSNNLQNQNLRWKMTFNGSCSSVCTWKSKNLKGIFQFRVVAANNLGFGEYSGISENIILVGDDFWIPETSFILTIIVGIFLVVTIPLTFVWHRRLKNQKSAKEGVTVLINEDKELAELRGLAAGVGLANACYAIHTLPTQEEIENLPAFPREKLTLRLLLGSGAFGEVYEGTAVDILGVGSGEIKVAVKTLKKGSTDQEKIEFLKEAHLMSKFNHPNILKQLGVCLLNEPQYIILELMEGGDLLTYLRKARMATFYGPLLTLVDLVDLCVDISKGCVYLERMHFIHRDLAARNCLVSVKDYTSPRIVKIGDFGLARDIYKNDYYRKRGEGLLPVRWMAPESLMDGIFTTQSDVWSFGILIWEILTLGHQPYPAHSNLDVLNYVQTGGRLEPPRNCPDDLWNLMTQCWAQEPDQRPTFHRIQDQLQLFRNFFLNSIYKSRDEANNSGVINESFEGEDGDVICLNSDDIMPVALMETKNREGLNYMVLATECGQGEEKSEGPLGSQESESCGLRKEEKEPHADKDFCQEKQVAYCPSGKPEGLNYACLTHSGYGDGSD
T2 sequence (Q16288 whole entry G623R, the tested form may be a part): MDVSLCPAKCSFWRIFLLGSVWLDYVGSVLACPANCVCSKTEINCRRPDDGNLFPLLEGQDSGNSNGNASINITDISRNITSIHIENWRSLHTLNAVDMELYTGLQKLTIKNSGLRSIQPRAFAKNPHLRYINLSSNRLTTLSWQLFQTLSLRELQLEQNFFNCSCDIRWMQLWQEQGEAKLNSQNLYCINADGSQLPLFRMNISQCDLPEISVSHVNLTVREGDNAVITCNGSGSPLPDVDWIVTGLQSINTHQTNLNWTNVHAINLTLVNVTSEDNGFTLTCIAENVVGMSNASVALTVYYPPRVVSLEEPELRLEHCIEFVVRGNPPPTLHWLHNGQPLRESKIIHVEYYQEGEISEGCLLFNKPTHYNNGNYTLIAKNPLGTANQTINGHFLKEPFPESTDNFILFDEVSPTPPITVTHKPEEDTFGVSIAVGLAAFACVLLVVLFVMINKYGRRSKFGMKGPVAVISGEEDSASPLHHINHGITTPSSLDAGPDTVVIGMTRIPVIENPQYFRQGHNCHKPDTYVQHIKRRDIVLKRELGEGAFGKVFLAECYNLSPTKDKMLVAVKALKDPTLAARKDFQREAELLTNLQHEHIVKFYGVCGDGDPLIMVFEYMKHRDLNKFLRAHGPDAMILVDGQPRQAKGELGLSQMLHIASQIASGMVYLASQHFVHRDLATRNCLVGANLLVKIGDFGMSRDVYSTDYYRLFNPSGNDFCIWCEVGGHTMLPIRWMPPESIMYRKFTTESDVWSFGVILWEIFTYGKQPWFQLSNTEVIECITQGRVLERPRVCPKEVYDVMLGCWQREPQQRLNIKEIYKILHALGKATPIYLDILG
T1 sequence (Q9UM73 19-1620): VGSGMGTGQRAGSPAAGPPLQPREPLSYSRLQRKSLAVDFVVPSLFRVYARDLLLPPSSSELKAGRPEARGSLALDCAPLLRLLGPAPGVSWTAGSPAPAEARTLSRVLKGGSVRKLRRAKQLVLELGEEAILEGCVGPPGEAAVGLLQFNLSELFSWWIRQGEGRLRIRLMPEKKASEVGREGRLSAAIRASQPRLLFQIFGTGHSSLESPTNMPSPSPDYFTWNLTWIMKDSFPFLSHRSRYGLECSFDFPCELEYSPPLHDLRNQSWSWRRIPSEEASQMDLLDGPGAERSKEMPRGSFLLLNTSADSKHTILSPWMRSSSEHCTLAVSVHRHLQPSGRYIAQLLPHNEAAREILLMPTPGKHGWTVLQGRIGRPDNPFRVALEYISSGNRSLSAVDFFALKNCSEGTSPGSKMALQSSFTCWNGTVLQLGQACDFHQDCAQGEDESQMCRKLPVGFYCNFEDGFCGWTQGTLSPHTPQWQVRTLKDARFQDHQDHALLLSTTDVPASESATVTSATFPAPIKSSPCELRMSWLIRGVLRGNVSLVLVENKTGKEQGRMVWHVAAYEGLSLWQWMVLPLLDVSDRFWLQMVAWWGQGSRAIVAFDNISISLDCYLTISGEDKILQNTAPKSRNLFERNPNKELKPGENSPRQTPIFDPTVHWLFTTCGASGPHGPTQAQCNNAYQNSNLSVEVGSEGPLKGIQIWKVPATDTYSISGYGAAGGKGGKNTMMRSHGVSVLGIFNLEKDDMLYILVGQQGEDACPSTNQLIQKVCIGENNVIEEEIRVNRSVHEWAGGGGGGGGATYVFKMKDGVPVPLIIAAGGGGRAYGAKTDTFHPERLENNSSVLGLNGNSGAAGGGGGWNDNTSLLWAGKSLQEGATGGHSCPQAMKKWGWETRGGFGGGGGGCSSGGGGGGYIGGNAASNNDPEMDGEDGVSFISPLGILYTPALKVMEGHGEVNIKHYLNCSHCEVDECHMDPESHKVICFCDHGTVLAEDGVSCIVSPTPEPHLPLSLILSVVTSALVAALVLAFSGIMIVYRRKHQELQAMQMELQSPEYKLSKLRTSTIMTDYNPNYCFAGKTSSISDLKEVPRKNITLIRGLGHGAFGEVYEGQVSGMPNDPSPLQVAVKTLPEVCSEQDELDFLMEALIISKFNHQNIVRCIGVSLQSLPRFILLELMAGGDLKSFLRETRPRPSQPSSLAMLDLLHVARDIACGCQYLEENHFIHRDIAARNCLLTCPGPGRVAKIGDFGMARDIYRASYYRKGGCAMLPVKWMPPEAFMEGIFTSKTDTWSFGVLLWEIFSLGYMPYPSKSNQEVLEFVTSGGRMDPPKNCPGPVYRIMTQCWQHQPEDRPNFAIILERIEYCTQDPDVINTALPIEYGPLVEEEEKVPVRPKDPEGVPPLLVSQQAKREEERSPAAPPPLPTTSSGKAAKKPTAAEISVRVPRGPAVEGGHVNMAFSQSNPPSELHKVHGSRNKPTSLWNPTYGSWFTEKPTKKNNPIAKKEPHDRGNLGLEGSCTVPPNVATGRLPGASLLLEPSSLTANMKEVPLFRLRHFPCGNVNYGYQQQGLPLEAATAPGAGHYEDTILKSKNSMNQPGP

## O=C1NC2(CC2)COc2ncc(F)cc2C2COCCN2c2ccn3ncc1c3n2 (single isomer, unassigned) [WX001B]
[1]; IV, 3 mg/kg
  Apparent clearance Cl: 7.33 mL/min/kg
[1]; [4]
  Vd: 0.77 L/kg
  AUC(0-t): 16.6 µM·h
  half-life: 94.8 min
[1]; [5]
  AUC(0-t): 49.1 µM·h
  bioavailability: 89%
  Cmax: 12.2 µM
ALK
  IC50: 182 nM
[2]; 2.5 mg/kg bid
  Rate of change in body weight (%) of day 11 to day 0: 4.9%
[2]; 5 mg/kg bid
  Rate of change in body weight (%) of day 11 to day 0: 5.0%
[2]; 10 mg/kg bid
  Rate of change in body weight (%) of day 11 to day 0: 4.8%
[2]; 20 mg/kg bid
  Rate of change in body weight (%) of day 11 to day 0: 5.1%
[2]; Day 0, 2.5 mg/kg bid
  Body weight: 22.9 ± 1.6 g
[2]; Day 0, 5 mg/kg bid
  Body weight: 23.5 ± 1.6 g
[2]; Day 0, 10 mg/kg bid
  Body weight: 23.3 ± 0.9 g
[2]; Day 0, 20 mg/kg bid
  Body weight: 23.2 ± 1.9 g
[2]; Day 3, 2.5 mg/kg bid
  Body weight: 24.2 ± 2.0 g
[2]; Day 3, 5 mg/kg bid
  Body weight: 25.5 ± 1.8 g
[2]; Day 3, 10 mg/kg bid
  Body weight: 24.9 ± 0.7 g
[2]; Day 3, 20 mg/kg bid
  Body weight: 25.1 ± 2.5 g
[2]; Day 5, 2.5 mg/kg bid
  Body weight: 24.8 ± 1.8 g
[2]; Day 5, 5 mg/kg bid
  Body weight: 26.4 ± 1.6 g
[2]; Day 5, 10 mg/kg bid
  Body weight: 25.8 ± 0.7 g
[2]; Day 5, 20 mg/kg bid
  Body weight: 26.2 ± 2.8 g
[2]; Day 7, 2.5 mg/kg bid
  Body weight: 25.4 ± 2.0 g
[2]; Day 7, 5 mg/kg bid
  Body weight: 27.5 ± 1.7 g
[2]; Day 7, 10 mg/kg bid
  Body weight: 26.3 ± 1.1 g
[2]; Day 7, 20 mg/kg bid
  Body weight: 27.2 ± 2.7 g
[2]; Day 9, 2.5 mg/kg bid
  Body weight: 25.5 ± 1.8 g
[2]; Day 9, 5 mg/kg bid
  Body weight: 27.5 ± 2.3 g
[2]; Day 9, 10 mg/kg bid
  Body weight: 26.4 ± 1.1 g
[2]; Day 9, 20 mg/kg bid
  Body weight: 27.7 ± 2.9 g
[2]; Day 11, 2.5 mg/kg bid
  Body weight: 25.7 ± 1.9 g
[2]; Day 11, 5 mg/kg bid
  Body weight: 27.8 ± 2.2 g
[2]; Day 11, 10 mg/kg bid
  Body weight: 26.4 ± 1.4 g
[2]; Day 11, 20 mg/kg bid
  Body weight: 27.6 ± 3.5 g
[2]; all animals in all dose groups
  General observations: survival: survived until the end of administration
[2]; all dose groups, 2.5-20 mg/kg bid
  Tolerance (body weight course): good tolerance
BaF3 ETV6-NTRK3-G623R
  GI50: 2.3 nM
[3]; 2.5 mg/kg bid
  Rate of change in body weight (%) of day 11 to day 0: 13.8%
[3]; 5 mg/kg bid
  Rate of change in body weight (%) of day 11 to day 0: 14.3%
[3]; 10 mg/kg bid
  Rate of change in body weight (%) of day 11 to day 0: 15.6%
[3]; 20 mg/kg bid
  Rate of change in body weight (%) of day 11 to day 0: 8.8%
[3]; 2.5-20 mg/kg bid
  Tolerance (body weight course): good tolerance
[3]; Day 0, 2.5 mg/kg bid
  Body weight: 23.6 ± 1.7 g
[3]; Day 0, 5 mg/kg bid
  Body weight: 24.4 ± 1.9 g
[3]; Day 0, 10 mg/kg bid
  Body weight: 23.6 ± 2.2 g
[3]; Day 0, 20 mg/kg bid
  Body weight: 24.1 ± 2.3 g
[3]; Day 3, 2.5 mg/kg bid
  Body weight: 24.6 ± 1.7 g
[3]; Day 3, 5 mg/kg bid
  Body weight: 25.7 ± 1.9 g
[3]; Day 3, 10 mg/kg bid
  Body weight: 24.9 ± 2.1 g
[3]; Day 3, 20 mg/kg bid
  Body weight: 25.9 ± 2.8 g
[3]; Day 5, 2.5 mg/kg bid
  Body weight: 25.5 ± 1.8 g
[3]; Day 5, 5 mg/kg bid
  Body weight: 26.5 ± 1.9 g
[3]; Day 5, 10 mg/kg bid
  Body weight: 26.3 ± 2.2 g
[3]; Day 5, 20 mg/kg bid
  Body weight: 26.9 ± 2.9 g
[3]; Day 7, 2.5 mg/kg bid
  Body weight: 26.1 ± 2.1 g
[3]; Day 7, 5 mg/kg bid
  Body weight: 27.1 ± 1.8 g
[3]; Day 7, 10 mg/kg bid
  Body weight: 26.7 ± 2.2 g
[3]; Day 7, 20 mg/kg bid
  Body weight: 26.6 ± 3.2 g
[3]; Day 9, 2.5 mg/kg bid
  Body weight: 26.5 ± 1.8 g
[3]; Day 9, 5 mg/kg bid
  Body weight: 27.9 ± 1.9 g
[3]; Day 9, 10 mg/kg bid
  Body weight: 26.8 ± 2.2 g
[3]; Day 9, 20 mg/kg bid
  Body weight: 26.4 ± 3.5 g
[3]; Day 11, 2.5 mg/kg bid
  Body weight: 26.8 ± 2.0 g
[3]; Day 11, 5 mg/kg bid
  Body weight: 27.9 ± 2.6 g
[3]; Day 11, 10 mg/kg bid
  Body weight: 27.3 ± 2.2 g
[3]; Day 11, 20 mg/kg bid
  Body weight: 26.3 ± 3.9 g
Ba/F3 SLC34A2-ROS1-WT
  GI50: 64.2 nM

## O=C(Nc1cnn2ccc(N3CCC[C@@H]3c3cc(F)ccc3F)nc12)N1CC[C@H](O)C1 [LOXO-101, larotrectinib, reference compound]
[1]; IV, 3 mg/kg
  Apparent clearance Cl: 37.4 mL/min/kg
[1]; [4]
  Vd: 0.97 L/kg
  AUC(0-t): 3.12 µM·h
  half-life: 23.4 min
[1]; [5]
  AUC(0-t): 2.89 µM·h
  bioavailability: 28%
  Cmax: 1.55 µM
[1]; male, CD-1, mouse, plasma, PO, 10 mg/kg, read-out: Time to peak Tmax
  Tmax: 22.8 min
ALK; read-out: Half maximal inhibitory concentration IC50 for kinases, ALK
  IC50: > 1000 nM
[2]; 60 mg/kg qd
  Rate of change in body weight (%) of day 11 to day 0: 4.4%
[2]; Day 0, 60 mg/kg qd
  Body weight: 23.8 ± 1.6 g
[2]; Day 3, 60 mg/kg qd
  Body weight: 22.9 ± 2.0 g
[2]; Day 5, 60 mg/kg qd
  Body weight: 23.6 ± 2.2 g
[2]; Day 7, 60 mg/kg qd
  Body weight: 23.9 ± 2.5 g
[2]; Day 9, 60 mg/kg qd
  Body weight: 24.2 ± 2.2 g
[2]; Day 11, 60 mg/kg qd
  Body weight: 24.7 ± 2.7 g
BaF3 ETV6-NTRK3-G623R
  GI50: 394 nM
[3]; 60 mg/kg qd
  Rate of change in body weight (%) of day 11 to day 0: 6.8%
[3]; Day 0, 60 mg/kg qd
  Body weight: 23.9 ± 1.4 g
[3]; Day 3, 60 mg/kg qd
  Body weight: 24.2 ± 1.8 g
[3]; Day 5, 60 mg/kg qd
  Body weight: 24.1 ± 2.0 g
[3]; Day 7, 60 mg/kg qd
  Body weight: 25.0 ± 2.2 g
[3]; Day 9, 60 mg/kg qd
  Body weight: 25.3 ± 2.2 g
[3]; Day 11, 60 mg/kg qd
  Body weight: 25.6 ± 2.4 g
Ba/F3 SLC34A2-ROS1-WT
  GI50: > 1000 nM
